Data published in patent US20110280813A1, “NEURAMINIDASE INHIBITORS AND USES THEREOF” (priority 2008, published 2011).
pIC50: −log10 of the molar value. Entries after “also recorded” stand apart in the source; their conditions may differ. Like-named read-outs stand apart in the source and are kept apart here.

Assays:
[1] = target: T1, P. aeruginosa neuraminidase (NanPs) (Pseudomonas aeruginosa, UniProt G3XCV3); settings: read-out: concentration for 50% inhibition of the P. aeruginosa neuraminidase; from reference A37; cited from earlier work
T1 sequence (G3XCV3 entry or part of it): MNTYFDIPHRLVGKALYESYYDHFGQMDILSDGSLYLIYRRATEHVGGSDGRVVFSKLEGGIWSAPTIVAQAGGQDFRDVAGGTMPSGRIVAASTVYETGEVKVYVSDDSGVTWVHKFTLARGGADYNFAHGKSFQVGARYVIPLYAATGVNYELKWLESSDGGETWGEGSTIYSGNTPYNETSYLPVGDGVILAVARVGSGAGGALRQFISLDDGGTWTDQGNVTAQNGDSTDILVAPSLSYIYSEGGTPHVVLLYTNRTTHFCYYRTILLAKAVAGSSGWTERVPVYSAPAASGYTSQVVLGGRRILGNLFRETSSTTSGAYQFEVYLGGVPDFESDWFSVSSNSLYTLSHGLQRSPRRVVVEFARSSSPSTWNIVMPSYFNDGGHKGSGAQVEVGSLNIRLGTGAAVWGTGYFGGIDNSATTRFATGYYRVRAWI

[2] = target: T2, S. pneumoniae neuraminidase (NanA) (Streptococcus pneumoniae, UniProt P62575); test: Neuraminidase assay with fluorogenic substrate MNN, NanA; format: biochemical
T2 construct: residues 116-1035 of S. pneumoniae D39 sialidase A precursor (NanA); made in house; host or cells: E. coli BL21(DE3), pET28a
T2 sequence (P62575 116-1035): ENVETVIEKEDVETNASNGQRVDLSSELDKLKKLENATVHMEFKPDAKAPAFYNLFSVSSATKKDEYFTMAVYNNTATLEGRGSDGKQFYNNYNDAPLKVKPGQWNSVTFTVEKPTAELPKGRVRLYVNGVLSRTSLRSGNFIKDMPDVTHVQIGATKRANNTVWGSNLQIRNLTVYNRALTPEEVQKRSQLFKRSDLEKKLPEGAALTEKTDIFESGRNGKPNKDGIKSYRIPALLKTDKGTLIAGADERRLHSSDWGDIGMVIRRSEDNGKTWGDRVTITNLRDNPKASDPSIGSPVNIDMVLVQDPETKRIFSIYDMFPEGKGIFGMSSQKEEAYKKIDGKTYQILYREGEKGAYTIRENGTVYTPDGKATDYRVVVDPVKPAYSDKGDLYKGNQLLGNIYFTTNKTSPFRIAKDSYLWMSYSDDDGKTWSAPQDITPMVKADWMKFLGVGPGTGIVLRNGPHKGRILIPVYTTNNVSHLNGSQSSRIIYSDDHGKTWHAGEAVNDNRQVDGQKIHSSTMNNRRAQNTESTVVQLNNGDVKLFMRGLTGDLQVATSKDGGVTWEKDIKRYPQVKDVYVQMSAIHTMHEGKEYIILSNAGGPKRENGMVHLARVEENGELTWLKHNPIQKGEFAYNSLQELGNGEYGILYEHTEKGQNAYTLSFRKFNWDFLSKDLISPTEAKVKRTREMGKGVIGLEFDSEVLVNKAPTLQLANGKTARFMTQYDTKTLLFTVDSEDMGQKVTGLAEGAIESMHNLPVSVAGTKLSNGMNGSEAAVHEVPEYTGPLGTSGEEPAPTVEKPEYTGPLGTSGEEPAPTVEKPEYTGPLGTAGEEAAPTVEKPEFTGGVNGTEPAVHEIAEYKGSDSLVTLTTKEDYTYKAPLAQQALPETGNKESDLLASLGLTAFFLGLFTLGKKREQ
Method: (§1) Neuraminidase assay. Neuraminidase activity of NanA was detected using the fluorogenic substrate 2′-(4-methylumbelliferyl)-α-D-N-acetylneuraminic acid (MNN, Sigma). Reactions contained 1.5 mM MNN, 1 nM of NanA in 2.5 mM sodium phosphate buffer (pH 5). Reactions were allowed to incubate for 2 h at 37° C. before fluorescence intensity was measured at excitation and emission wavelengths of 360 nm and 465 nm in a Tecan microplate reader (Männedorf, Switzerland). NanPs was assayed as above with 1 mM of enzyme in 7.5 mM sodium chloride and 4 mM calcium chloride. Compounds were screened at a concentration of 100 μM before dose-dependence was established. Compounds were obtained from a variety of sources (Otava, Kyiv, Ukraine; Interbioscreen, Moscow, Russia; Chembridge San Diego, USA; Maybridge, Cornwell, UK; Sigma, St Louis, USA; Princeton, Princeton, USA; Lifechem, Burlington, Canada; Enamine, Kiev, Ukraine). Neuraminidase assays with oseltamivir were performed using the hydrolyzed version of the compound. Divalent cations were supplied in the form of calcium, magnesium, ferric and copper chloride. All neuraminidase assays were performed at least in triplicate.
as §1, with “assay. NanA was purified as previously described (B19).” for “assay.”, “Switzerland).” for “Switzerland). NanPs was assayed as above with 1 mM of enzyme in 7.5 mM sodium chloride and 4 mM calcium chloride. Compounds were screened at a concentration of 100 μM before dose-dependence was established.”, “Kiev,” for “Kyiv,”, “compound. Briefly, a mixture of oseltamivir (300 mg) in methanol (10 ml) was added to 5N NaOH (3 ml). The mixture was stirred overnight and evaporated under reduced pressure. The residue was dissolved in 10 ml H2O and the washed with 5 ml of ethyl acetate. The aqueous solution was acidified with 5N HCl to pH=2-3. Evaporation of water under reduced pressure gave the hydrolyzed product. […]” for “compound.”

[3] = tested on: S. pneumoniae wild-type D39 biofilm; test: Biofilm formation after epithelial cell interaction (crystal violet microtitre assay); format: cell-based, Streptococcus pneumoniae
Method: (§2) Biofilm assay. Bacterial strains were grown to mid-log phase before being diluted 1:100 in TS broth and catalase. 100 μl of diluted culture was added in triplicate to 96-well flat bottom tissue culture treated plates (Falcon) and left for 18-24 h at 37° C. with 5% CO2. Plates were read at 600 nm to determine levels of growth before being washed in water. Adherent biofilm-forming cells were then stained with 125 μL of 1% crystal violet for 15 min before two further washes in water and allowed to dry. Bound crystal violet was then suspended in 200 μL of ethanol, shaken for 15 min and read at 540 nm.
(§3) Biofilm formation after epithelial cell interaction. Bacterial strains were grown and inoculated onto 1HAEo^− cells as per adherence assay. After the initial PBS washes fresh MEM media was applied before a further 1 h incubation. This removal and addition of fresh media was repeated a further four times before detachment of adherent bacteria using TrypLE Express (Gibco). The detached bacteria were then diluted 1:100 in TS broth and catalase and assayed as per the biofilm assay. Samples were repeated four times, each time in sextuplicate using epithelial cells without bacteria as a negative control.
as §3, with “control. […] Fluorescence microscopy was performed using a Zeiss Observer Z1 inverted fluorescence microscope with ApoTome (Zeiss) for optical sectioning and AxioVision software (v 4.6.2.0, Zeiss). […]” for “control.”

[4] = target: T1, P. aeruginosa neuraminidase (NanPs); test: Neuraminidase assay with fluorogenic substrate MNN, NanPs; format: biochemical
Method: as §1

[5] = tested on: S. pneumoniae planktonic cells; test: Growth of planktonic cells (600 nm reading in biofilm assay); format: cell-based, Streptococcus pneumoniae
Method: as §2
as §3, with “control. […] Fluorescence microscopy was performed using a Zeiss Observer Z1 inverted fluorescence microscope with ApoTome (Zeiss) for optical sectioning and AxioVision software (v 4.6.2.0, Zeiss). […]” for “control.”

CC(=O)N[C@H]1[C@H]([C@H](O)[C@H](O)CO)OC(C(=O)O)=C[C@@H]1O [DANA, 2,3-dehydro-2-deoxy-N-acetylneuraminic acid]
pIC50 [1]: ~2.00

CC(=O)N[C@@H]1[C@@H](O)C[C@](Oc2ccc3c(C)cc(=O)oc3c2)(C(=O)O)O[C@H]1C(O)[C@H](O)CO (stereo partly drawn) [MNN, 2′-(4-methylumbelliferyl)-α-D-N-acetylneuraminic acid, reference compound]
Km [2]: ~1.4 mM

CC(=O)N[C@H]1[C@H]([C@H](O)[C@H](O)CO)OC(O)(C(=O)O)C[C@@H]1O (stereo partly drawn) [NANA, N-acetylneuraminic acid, reference compound]
pIC50 [2]: 3.22
biofilm formation of the wild-type (D39) strain ([3]; 0.2% w/v NANA): decreased biofilm formation; also recorded: reduced biofilm formation
pIC50 [1]: ~2.00

CCOC(=O)C1=C[C@@H](OC(CC)CC)[C@H](NC(C)=O)[C@@H](N)C1 [Oseltamivir, oseltamivir, reference compound]
pIC50 ([2]; IC50 against NanA, hydrolyzed version of oseltamivir): 2.70
pIC50 [4]: ~3.22

COc1ccc([C@H]2[C@H](C(=O)c3ccc(Cl)cc3)C(=O)C(=O)N2c2cccc(C(=O)O)c2)cc1 [XX1]
inhibition of NanA, times more effective than DANA ([2]; Example 1): greater than 20 times
inhibition of NanA, times more effective than NANA ([2]; Example 1): > 80 times
inhibition of NanA, times more effective than oseltamivir ([2]; Example 1): > 200 times
inhibition of NanA, times more effective than DANA ([2]; Example 3): greater than 7 times
inhibition of NanA, times more effective than NANA ([2]; Example 3): > 20 times
inhibition of NanA, times more effective than oseltamivir ([2]; Example 3): > 70 times
pIC50 ([2]; IC50 against NanA, Example 3, dose response fitted with logarithmic-based trend line): 4.55
pIC50 ([2]; IC50 for the S. pneumoniae neuraminidase, Example 1, dose response fitted with power-based trend line): 5.07
pIC50 [4]: 4.54
biofilm formation ([3]; 100 μM, inhibitor present during epithelial cell exposure and in microtitre trays): significant reduction in biofilm formation
levels of biofilm formation ([3]; 400 μM, inhibitor present during epithelial cell exposure and in microtitre trays): comparative to the nanA strain
growth of planktonic cells [5]: did not affect growth

[Ca] [calcium]
increase in NanA activity ([2]; 1 mM calcium): 70%

[Mg] [magnesium]
increase in NanA activity ([2]; presence of magnesium ions): 50%
